Source: ChEMBL document CHEMBL1152828, “Rare dipeptide and urea derivatives from roots of Moringa oleifera as potential anti-inflammatory and antinociceptive agents” (Eur J Med Chem, 2009)
Calls of active or inactive are those of the source. No cut-off for these calls is given here.

Columns and labels:
Mus musculus = test: Analgesic activity in intracerebrally dosed mouse assessed as increase in time course of latency for thermal stimulation by hotplate test; assay type: functional, organism-based
Blood [1] = test: Inhibition of LPS-induced IL2 production in rat whole blood at 12.5 to 50 uM by ELISA; assay type: functional, tissue-based
[2] = biological target: Transient receptor potential cation channel subfamily V member 1 (Rattus norvegicus, UniProt O35433); test: Antagonist activity at TRPV1 in rat DRG neuron assessed as inhibition of calcium uptake; assay type: functional
Blood [3] = test: Inhibition of LPS-induced TNFalpha production in rat whole blood at 12.5 to 50 uM by ELISA; assay type: functional, tissue-based
Blood [4] = test: Inhibition of LPS-induced IL6 production in rat whole blood at 12.5 to 50 uM by ELISA; assay type: functional, tissue-based

Chain of Transient receptor potential cation channel subfamily V member 1 (O35433 whole entry): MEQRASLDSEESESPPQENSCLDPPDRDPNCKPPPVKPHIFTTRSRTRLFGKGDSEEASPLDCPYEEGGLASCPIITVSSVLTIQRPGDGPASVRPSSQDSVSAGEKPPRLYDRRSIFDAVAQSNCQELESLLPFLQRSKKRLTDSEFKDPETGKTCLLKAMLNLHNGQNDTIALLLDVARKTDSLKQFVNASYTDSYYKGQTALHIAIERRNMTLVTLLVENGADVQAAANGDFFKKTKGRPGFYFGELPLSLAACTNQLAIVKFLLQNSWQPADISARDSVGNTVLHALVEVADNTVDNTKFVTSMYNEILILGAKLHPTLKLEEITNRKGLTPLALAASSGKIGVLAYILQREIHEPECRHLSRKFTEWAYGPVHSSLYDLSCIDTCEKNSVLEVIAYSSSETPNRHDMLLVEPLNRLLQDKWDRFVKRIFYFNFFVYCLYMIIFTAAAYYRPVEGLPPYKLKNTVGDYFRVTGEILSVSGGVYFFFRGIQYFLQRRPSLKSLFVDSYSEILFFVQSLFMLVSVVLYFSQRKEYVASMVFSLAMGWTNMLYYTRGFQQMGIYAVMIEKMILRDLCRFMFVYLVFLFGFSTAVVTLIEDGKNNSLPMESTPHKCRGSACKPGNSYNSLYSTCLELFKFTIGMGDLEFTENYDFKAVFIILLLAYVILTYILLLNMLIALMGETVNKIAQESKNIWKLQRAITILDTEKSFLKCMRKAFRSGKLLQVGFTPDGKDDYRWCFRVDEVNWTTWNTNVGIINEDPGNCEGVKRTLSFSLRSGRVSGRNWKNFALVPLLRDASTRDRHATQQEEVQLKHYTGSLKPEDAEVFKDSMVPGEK

Compound: O=C(NCc1ccccc1)NCc1ccccc1
- Activity (Mus musculus): Dose-dependent effect
- Activity (Blood [1]): Active
- IC50 [2]: 10 nM

Compound: CC(=O)OCC(Cc1ccccc1)NC(=O)C(Cc1ccccc1)NC(=O)c1ccccc1 (configuration not stated)
- Activity (Mus musculus): Dose-dependent effect
- Activity (Blood [3]): Active
- Activity (Blood [1]): Active
- Activity (Blood [4]): Active
